# Measured values as given in patent publication US20080103205A1, “Pesticidal compositions and methods of use” (priority 2006, published 2008).
# Read-outs that look alike come from different tables or passages of the source.
# What was measured:
# [1] = test system: Caenorhabditis elegans; test: Toxicity test, adult Caenorhabditis elegans, 96 well micro plate; format: in vivo; conditions: Caenorhabditis elegans
# Description: (§1) Methodology: Toxicity tests were conducted using J2 juveniles of Meloidogyne incognita adult Caenorhabditis elegans collected from nematode-infested tomato plant roots and culture Petri plates, respectively. Test concentrations of 50, 100, 200, 300, or 400 ppm were prepared in 0.2% dimethylsulfoxide (DMSO) in tap water. Aliquots (300 microliters (ul)) were applied to a 96 well micro plate and a 20 ul aqueous solution containing nematodes was added. The number of nematodes in 20 ul ranged from 17 to 30. Micro plates were sealed with Parafilm™ and incubated at room temperature. Similar tests conducted with 0.2% DMSO in tap water served as controls. Nematode mortality was checked at 24, 48, 72, 120, and 168 hr after incubation. Nematodes that were motionless for 30 sec when observed under a stereomicroscope were considered paralyzed and included in mortality counts. Each concentration was replicated five times and mean percent mortality was calculated after correcting for control mortality using Abbott's formula.
# (§2) Data Analysis: Mortality data were analyzed using PROC PROBIT (SAS) program and LC50 values were estimated.
# [2] = test system: Meloidogyne incognita; test: Toxicity test, J2 juveniles of Meloidogyne incognita, 96 well micro plate; format: in vivo; conditions: Meloidogyne incognita
# Description: as §1, §2
# [3] = 24 h, read-out: Corrected Mortality (%)
# [4] = 48 h, read-out: Corrected Mortality (%)
# [5] = 72 h, read-out: Corrected Mortality (%)
# [6] = 120 h, read-out: Corrected Mortality (%)
# [7] = 168 h, read-out: Corrected Mortality (%)
smiles,measurement,setting,value
"O=C(O)c1cc([N+](=O)[O-])ccc1NCCCc1ccccc1 [NPPB, 5-Nitro-2-(3-phenylpropylamino)benzoic acid]",mortality at 50 ppm,[1]; 24 h,14%
same,mortality at 100 ppm,[1]; 24 h,17%
same,mortality at 200 ppm,[1]; 24 h,20%
same,mortality at 300 ppm,[1]; 24 h,22%
same,mortality at 400 ppm,[1]; 24 h,24%
same,mortality at 50 ppm,[1]; [3],10%
same,mortality at 100 ppm,[1]; [3],14%
same,mortality at 200 ppm,[1]; [3],18%
same,mortality at 300 ppm,[1]; [3],20%
same,mortality at 400 ppm,[1]; [3],22%
same,mortality at 50 ppm,[1]; 48 h,26%
same,mortality at 100 ppm,[1]; 48 h,36%
same,mortality at 200 ppm,[1]; 48 h,44%
same,mortality at 300 ppm,[1]; 48 h,49%
same,mortality at 400 ppm,[1]; 48 h,53%
same,mortality at 50 ppm,[1]; [4],22%
same,mortality at 100 ppm,[1]; [4],33%
same,mortality at 200 ppm,[1]; [4],41%
same,mortality at 300 ppm,[1]; [4],46%
same,mortality at 400 ppm,[1]; [4],51%
same,mortality at 50 ppm,[1]; 72 h,47%
same,mortality at 100 ppm,[1]; 72 h,62%
same,mortality at 200 ppm,[1]; 72 h,73%
same,mortality at 300 ppm,[1]; 72 h,80%
same,mortality at 400 ppm,[1]; 72 h,84%
same,mortality at 50 ppm,[1]; [5],43%
same,mortality at 100 ppm,[1]; [5],59%
same,mortality at 200 ppm,[1]; [5],71%
same,mortality at 300 ppm,[1]; [5],78%
same,mortality at 400 ppm,[1]; [5],83%
same,mortality at 50 ppm,[1]; 120 h,70%
same,mortality at 100 ppm,[1]; 120 h,85%
same,mortality at 200 ppm,[1]; 120 h,93%
same,mortality at 300 ppm,[1]; 120 h,97%
same,mortality at 400 ppm,[1]; 120 h,100%
same,mortality at 50 ppm,[1]; [6],66%
same,mortality at 100 ppm,[1]; [6],83%
same,mortality at 200 ppm,[1]; [6],92%
same,mortality at 300 ppm,[1]; [6],97%
same,mortality at 400 ppm,[1]; [6],100%
same,mortality at 50 ppm,[1]; 168 h,93%
same,mortality at 100 ppm,[1]; 168 h,99%
same,mortality at 200 ppm,[1]; 168 h,100%
same,mortality at 300 ppm,[1]; 168 h,100%
same,mortality at 400 ppm,[1]; 168 h,100%
same,mortality at 50 ppm,[1]; [7],92%
same,mortality at 100 ppm,[1]; [7],99%
same,mortality at 200 ppm,[1]; [7],100%
same,mortality at 300 ppm,[1]; [7],100%
same,mortality at 400 ppm,[1]; [7],100%
same,mortality at 50 ppm,[2]; 24 h,12%
same,mortality at 100 ppm,[2]; 24 h,14%
same,mortality at 200 ppm,[2]; 24 h,18%
same,mortality at 300 ppm,[2]; 24 h,20%
same,mortality at 400 ppm,[2]; 24 h,27%
same,mortality at 50 ppm,[2]; [3],8%
same,mortality at 100 ppm,[2]; [3],10%
same,mortality at 200 ppm,[2]; [3],15%
same,mortality at 300 ppm,[2]; [3],17%
same,mortality at 400 ppm,[2]; [3],24%
same,mortality at 50 ppm,[2]; 48 h,22%
same,mortality at 100 ppm,[2]; 48 h,32%
same,mortality at 200 ppm,[2]; 48 h,41%
same,mortality at 300 ppm,[2]; 48 h,43%
same,mortality at 400 ppm,[2]; 48 h,56%
same,mortality at 50 ppm,[2]; [4],17%
same,mortality at 100 ppm,[2]; [4],28%
same,mortality at 200 ppm,[2]; [4],37%
same,mortality at 300 ppm,[2]; [4],39%
same,mortality at 400 ppm,[2]; [4],53%
same,mortality at 50 ppm,[2]; 72 h,40%
same,mortality at 100 ppm,[2]; 72 h,51%
same,mortality at 200 ppm,[2]; 72 h,66%
same,mortality at 300 ppm,[2]; 72 h,73%
same,mortality at 400 ppm,[2]; 72 h,82%
same,mortality at 50 ppm,[2]; [5],33%
same,mortality at 100 ppm,[2]; [5],45%
same,mortality at 200 ppm,[2]; [5],62%
same,mortality at 300 ppm,[2]; [5],70%
same,mortality at 400 ppm,[2]; [5],80%
same,mortality at 50 ppm,[2]; 120 h,62%
same,mortality at 100 ppm,[2]; 120 h,73%
same,mortality at 200 ppm,[2]; 120 h,90%
same,mortality at 300 ppm,[2]; 120 h,97%
same,mortality at 400 ppm,[2]; 120 h,100%
same,mortality at 50 ppm,[2]; [6],56%
same,mortality at 100 ppm,[2]; [6],69%
same,mortality at 200 ppm,[2]; [6],89%
same,mortality at 300 ppm,[2]; [6],97%
same,mortality at 400 ppm,[2]; [6],100%
same,mortality at 50 ppm,[2]; 168 h,89%
same,mortality at 100 ppm,[2]; 168 h,93%
same,mortality at 200 ppm,[2]; 168 h,99%
same,mortality at 300 ppm,[2]; 168 h,100%
same,mortality at 400 ppm,[2]; 168 h,100%
same,mortality at 50 ppm,[2]; [7],87%
same,mortality at 100 ppm,[2]; [7],92%
same,mortality at 200 ppm,[2]; [7],99%
same,mortality at 300 ppm,[2]; [7],100%
same,mortality at 400 ppm,[2]; [7],100%
"O=C(O)c1c2ccccc2cc2ccccc12 [9-AC, anthracene-9-carboxylic acid]",mortality at 50 ppm,[1]; 24 h,12%
same,mortality at 100 ppm,[1]; 24 h,14%
same,mortality at 200 ppm,[1]; 24 h,16%
same,mortality at 300 ppm,[1]; 24 h,20%
same,mortality at 400 ppm,[1]; 24 h,27%
same,mortality at 50 ppm,[1]; [3],10%
same,mortality at 100 ppm,[1]; [3],12%
same,mortality at 200 ppm,[1]; [3],14%
same,mortality at 300 ppm,[1]; [3],18%
same,mortality at 400 ppm,[1]; [3],26%
same,mortality at 50 ppm,[1]; 48 h,25%
same,mortality at 100 ppm,[1]; 48 h,30%
same,mortality at 200 ppm,[1]; 48 h,33%
same,mortality at 300 ppm,[1]; 48 h,39%
same,mortality at 400 ppm,[1]; 48 h,58%
same,mortality at 50 ppm,[1]; [4],23%
same,mortality at 100 ppm,[1]; [4],28%
same,mortality at 200 ppm,[1]; [4],31%
same,mortality at 300 ppm,[1]; [4],37%
same,mortality at 400 ppm,[1]; [4],57%
same,mortality at 50 ppm,[1]; 72 h,44%
same,mortality at 100 ppm,[1]; 72 h,48%
same,mortality at 200 ppm,[1]; 72 h,58%
same,mortality at 300 ppm,[1]; 72 h,65%
same,mortality at 400 ppm,[1]; 72 h,83%
same,mortality at 50 ppm,[1]; [5],41%
same,mortality at 100 ppm,[1]; [5],45%
same,mortality at 200 ppm,[1]; [5],56%
same,mortality at 300 ppm,[1]; [5],63%
same,mortality at 400 ppm,[1]; [5],81%
same,mortality at 50 ppm,[1]; 120 h,66%
same,mortality at 100 ppm,[1]; 120 h,73%
same,mortality at 200 ppm,[1]; 120 h,85%
same,mortality at 300 ppm,[1]; 120 h,90%
same,mortality at 400 ppm,[1]; 120 h,99%
same,mortality at 50 ppm,[1]; [6],64%
same,mortality at 100 ppm,[1]; [6],71%
same,mortality at 200 ppm,[1]; [6],84%
same,mortality at 300 ppm,[1]; [6],89%
same,mortality at 400 ppm,[1]; [6],99%
same,mortality at 50 ppm,[1]; 168 h,89%
same,mortality at 100 ppm,[1]; 168 h,93%
same,mortality at 200 ppm,[1]; 168 h,98%
same,mortality at 300 ppm,[1]; 168 h,100%
same,mortality at 400 ppm,[1]; 168 h,100%
same,mortality at 50 ppm,[1]; [7],89%
same,mortality at 100 ppm,[1]; [7],92%
same,mortality at 200 ppm,[1]; [7],98%
same,mortality at 300 ppm,[1]; [7],100%
same,mortality at 400 ppm,[1]; [7],100%
same,mortality at 50 ppm,[2]; 24 h,11%
same,mortality at 100 ppm,[2]; 24 h,12%
same,mortality at 200 ppm,[2]; 24 h,13%
same,mortality at 300 ppm,[2]; 24 h,16%
same,mortality at 400 ppm,[2]; 24 h,23%
same,mortality at 50 ppm,[2]; [3],10%
same,mortality at 100 ppm,[2]; [3],11%
same,mortality at 200 ppm,[2]; [3],12%
same,mortality at 300 ppm,[2]; [3],15%
same,mortality at 400 ppm,[2]; [3],22%
same,mortality at 50 ppm,[2]; 48 h,21%
same,mortality at 100 ppm,[2]; 48 h,27%
same,mortality at 200 ppm,[2]; 48 h,28%
same,mortality at 300 ppm,[2]; 48 h,37%
same,mortality at 400 ppm,[2]; 48 h,49%
same,mortality at 50 ppm,[2]; [4],17%
same,mortality at 100 ppm,[2]; [4],23%
same,mortality at 200 ppm,[2]; [4],24%
same,mortality at 300 ppm,[2]; [4],34%
same,mortality at 400 ppm,[2]; [4],46%
same,mortality at 50 ppm,[2]; 72 h,36%
same,mortality at 100 ppm,[2]; 72 h,43%
same,mortality at 200 ppm,[2]; 72 h,49%
same,mortality at 300 ppm,[2]; 72 h,60%
same,mortality at 400 ppm,[2]; 72 h,74%
same,mortality at 50 ppm,[2]; [5],32%
same,mortality at 100 ppm,[2]; [5],39%
same,mortality at 200 ppm,[2]; [5],46%
same,mortality at 300 ppm,[2]; [5],57%
same,mortality at 400 ppm,[2]; [5],72%
same,mortality at 50 ppm,[2]; 120 h,58%
same,mortality at 100 ppm,[2]; 120 h,65%
same,mortality at 200 ppm,[2]; 120 h,67%
same,mortality at 300 ppm,[2]; 120 h,84%
same,mortality at 400 ppm,[2]; 120 h,97%
same,mortality at 50 ppm,[2]; [6],54%
same,mortality at 100 ppm,[2]; [6],62%
same,mortality at 200 ppm,[2]; [6],64%
same,mortality at 300 ppm,[2]; [6],83%
same,mortality at 400 ppm,[2]; [6],97%
same,mortality at 50 ppm,[2]; 168 h,81%
same,mortality at 100 ppm,[2]; 168 h,86%
same,mortality at 200 ppm,[2]; 168 h,91%
same,mortality at 300 ppm,[2]; 168 h,100%
same,mortality at 400 ppm,[2]; 168 h,100%
same,mortality at 50 ppm,[2]; [7],79%
same,mortality at 100 ppm,[2]; [7],84%
same,mortality at 200 ppm,[2]; [7],89%
same,mortality at 300 ppm,[2]; [7],100%
same,mortality at 400 ppm,[2]; [7],100%
